One data set concerns the target T1, mouse liver low Km ALDH (Mus musculus, UniProt P47738).
T1 construct: Liver aldehyde dehydrogenase was extracted and assayed as previously described; from tissue; host or cells: liver of treated mice
T1 sequence (P47738 20-519): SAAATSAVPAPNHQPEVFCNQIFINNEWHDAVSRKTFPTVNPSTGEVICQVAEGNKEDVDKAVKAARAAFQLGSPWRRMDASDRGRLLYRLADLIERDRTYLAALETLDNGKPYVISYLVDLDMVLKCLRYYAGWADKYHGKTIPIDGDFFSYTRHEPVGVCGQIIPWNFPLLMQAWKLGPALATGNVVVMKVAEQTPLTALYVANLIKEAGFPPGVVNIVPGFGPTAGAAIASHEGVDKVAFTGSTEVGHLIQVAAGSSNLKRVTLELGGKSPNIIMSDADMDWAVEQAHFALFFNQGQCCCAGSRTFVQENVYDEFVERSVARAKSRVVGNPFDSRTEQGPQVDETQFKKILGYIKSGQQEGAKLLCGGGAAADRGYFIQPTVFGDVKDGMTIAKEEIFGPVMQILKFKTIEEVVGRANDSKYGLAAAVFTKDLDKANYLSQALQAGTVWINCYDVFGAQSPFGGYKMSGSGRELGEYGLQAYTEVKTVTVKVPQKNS
Put plainly: In vivo inhibition of mouse liver aldehyde dehydrogenase. The settings on record: mouse; 30 μmol/kg intravenous, mice. The procedure: Reagents—DETC-MeSO was synthesized by the method of Hart and Faiman (B. W. Hart et al., Biochem. Pharmacol.), 43, 403-406 (1992). Carbamoylated glutathione, S-(N,N-diethylcarbamoyl)glutathione (DETC-GS), was prepared essentially as described by Jin et al. (L. Jin, supra). The structures and purity of DETC-MeSO and DETC-GS were confirmed by 300 MHz NMR and FAB-tandem mass spectrometry. A QE300 NMR spectrometer (General Electric, Fremont, Calif.) and Autospec-Q Tandem Hybrid mass spectrometer (Fiscons/VG Analytical Limited, Manchester, England) were employed for these analyses. Liver aldehyde dehydrogenase was extracted and assayed as previously described (B. W. Hart et al., supra). MetSOX monosodium L-glutamate, glycine, glutathione, and NMDA were purchased from Sigma Chemical Company (St. Louis, Mo.). L-[3-^3H]Glutamate (46 Ci/mmol) was obtained from Amerisham Life Science (Buckinghamshire, England).

In a further data set the test system is ALDH2. As to the kind of experiment: In vitro inactivation of aldehyde dehydrogenase. The data set is classed as biochemical. The following applies: reversible or irreversible. The procedure:
To test whether the protective effect of DETC-MeSO in hyperbaric O2-induced convulsions in mice could be due to inhibition of succinic semi-aldehyde dehydrogenase (SSA DH), mechanistically related to ALDH2, the sensitivity of SSA DH to inactivation by DETC-MeSO was determined. Potentially, inhibition of SSA DH in brain could offset the build up of ammonia known to occur and produce more GABA. In vitro both ALDH2 and SSA DH are inactivated by DETC-MeSO at 47 M-1 s-1 and 300 M-1 s-1, respectively.

Data set [1] is described as follows: Carbamoylation of glutathione by DETC-MeSO under physiological conditions. The following applies: under physiological conditions. The text has this:
This rate of reaction was approximate an order of magnitude faster than that of the more familiar α-haloketone functionality.

The test system of data set [2] is brain glutamate receptors (synaptic membranes). As to the kind of experiment: Glutamate binding to synaptic membranes isolated from treated mice. The data set is classed as in vivo, mouse. The settings on record: 30 μmol/kg intravenous, mice. The procedure:
Binding Studies—Synaptic membranes (100 μg protein) were isolated (Y. H. Lee et al., J. Neurosci. Res. 40, 797-806 (1995)) form whole brain homogenate of male Swiss Webster mice and were incubated in 0.1 mM L-glutamate for 30 minutes at 25° C. After addition of 50 nM of [^3H]glutamate, incubation was continued for an additional 45 minutes. Reactions were terminated by centrifugation at 4° C. to separate membrane-bound from free radioactivity. Nonspecific binding (radioactivity bound in the presence of 0.5 mM unlabeled glutamate) averages: 20-30% of total radioactivity bound. The rate (k) and maximum percent blockage of glutamate binding (M) by DETC-MeSO (1) during the incubation time (t) was determined by fitting the equation [% inhibition]=M(1−e^−kh) to these day by use of the program Grafit (Erithicus Software Ltd.). This equation was derived for first-order inactivation by a group specific reagent that gives a partial effect. If “A” is the percent of binding activity that remains after extensive exposure (t=of the receptor to excess DETC-MeSO, then M=100−A)e^−kh+A; substituting (100−M) for “A” and [100−% inhibition] for “a” in this equation gives the one employed for purposes of data analyses. […] A second equation was employed in the analysis of binding data that defines partial, irreversible inactivation of two distinct groups of receptors [% inhibition]=M1(1−e^−k1^IT)+M2(1−e^−k1^IT), where M1 and M2 are the maximum amount of inhibition obtained for complete modification of each receptor population and k1 and k2 are the rate constants for these modifications, respectively.
Synaptic membranes were prepared from the brains of mice injected with DETC-MeSO (5.2 mg/kg, i.p.). The ability of synaptic membrane preparations isolated from DETC-MeSO-treated mice to bind glutamate was compared with similar preparations isolated from control animals. FIG. 3(A) illustrates the results obtained from synaptic membranes prepared from brains of mice killed two hours after a single dose of DETC-MeSO, or two hours after the last injection of multiple consecutive doses (5.2 mg/kg, i.p., daily for seven days). Either single or multiple dosing with DETC-MeSO reduced the capacity of synaptic membranes to bind glutamate by approximately 50%, the maximum effect obtained in vitro (FIG. 3). Each bar represents the average of results obtained from four animals and the error bars are for one standard deviation.

The test system is the same in data set [3]. As to the kind of experiment: [3H]glutamate binding to mouse brain synaptic membranes in vitro. The following applies: for effect on glutamate binding to synaptic membrane preparations: in vitro, without glycine. How it is done: Binding Studies—Synaptic membranes (100 μg protein) were isolated (Y. H. Lee et al., J. Neurosci. Res. 40, 797-806 (1995)) form whole brain homogenate of male Swiss Webster mice and were incubated in 0.1 mM L-glutamate for 30 minutes at 25° C. After addition of 50 nM of [^3H]glutamate, incubation was continued for an additional 45 minutes. Reactions were terminated by centrifugation at 4° C. to separate membrane-bound from free radioactivity. […] The rate (k) and maximum percent blockage of glutamate binding (M) by DETC-MeSO (1) during the incubation time (t) was determined by fitting the equation [% inhibition]=M(1−e^−kh) to these day by use of the program Grafit (Erithicus Software Ltd.). This equation was derived for first-order inactivation by a group specific reagent that gives a partial effect. If “A” is the percent of binding activity that remains after extensive exposure (t=of the receptor to excess DETC-MeSO, then M=100−A)e^−kh+A; substituting (100−M) for “A” and [100−% inhibition] for “a” in this equation gives the one employed for purposes of data analyses. […] A second equation was employed in the analysis of binding data that defines partial, irreversible inactivation of two distinct groups of receptors [% inhibition]=M1(1−e^−k1^IT)+M2(1−e^−k1^IT), where M1 and M2 are the maximum amount of inhibition obtained for complete modification of each receptor population and k1 and k2 are the rate constants for these modifications, respectively.
Six determinations of the effect of DETC-MeSO were made at each concentration tested (1, 5, 10, 50, 100, 200, and 1000 μM) and the average value is shown with error bars for one standard deviation.

Data set [4] addresses T2, rat liver mitochondrial low Km ALDH (Rattus norvegicus, UniProt P11884).
T2 construct: differential centrifugation carried out to isolate the mitochondrial faction; from tissue; host or cells: liver mitochondria of male Sprague-Dawley derived rats
T2 sequence (P11884 20-519): T1 sequence (P47738 20-519) with H13Q, R34K, R67Q, G237D, N313D, D422N
Put plainly: In vitro inhibition of rat liver mitochondrial low Km aldehyde dehydrogenase (isolated mitochondria). The settings on record: one hour incubation. The class given is biochemical. How it is done: To determine whether a compound of formula (I) can inhibit low Km aldehyde dehydrogenase, an amount of the compound is added to isolated mitochondria. To prepare isolated mitochondria, male Sprague-Dawley derived rats weighing 200-400 g were anesthetized with carbon dioxide and then decapitated. The livers from untreated rats were homogenized in 0.25 M sucrose and differential centrifugation carried out to isolate the mitochondrial faction. The mitochondria were solubilized with sodium deoxycholate, and mitochondrial low Km ALDH activity determined by the method of S. O. C. Tottmar et al., Biochem. J. 135, 577 (1973).
Mitochondria were isolated from the liver of untreated rats and resuspended in 0.1 M phosphate buffer (pH=7.4). Incubations contained 2 mg of mitochondrial protein, to which was added DETC-Me SO at 0.2 μM, 2.0 μM, 20 μM or 200 μM, or DDTC-Me SO at 0.5 μM, 2.5 μM, 10 μM; 25 μM, 50 μM or 100 μM. The DETC-Me SO or DDTC-Me SO was dissolved in ethanol and the incubations carried out for one hour. Control incubations contained ethanol alone.
At the end of the incubation, the mitochondria were isolated by centrifugation, resuspended in 0.25 M sucrose buffer and solubilized with deoxycholate. Low Km ALDH activity was determined by the method of S. O. C. Tottmar et. al., cited above.

The target in data set [5] is T2, rat liver mitochondrial low Km ALDH. As to the kind of experiment: Liver aldehyde dehydrogenase determined in vivo. The following applies: intraperitoneal (IP), liver taken eight hours later. How it is done: To determine if a compound of formula (I) can inhibit aldehyde dehydrogenase activity in vivo, doses of DETC-Me SO (1.3 mg/kg, 2.6 mg/kg, 5.2 mg/kg, 10.3 mg/kg and 20.6 mg/kg), were administered to male Sprague Dawley derived rats weighing 200-400 g. The rats were bred from a resident colony maintained in the Animal Care Unit at the University of Kansas. Rats were maintained on a 12-hour lights cycle with access to food and water ad lib until the night before an experiment, at which time food was removed. Animals were fasted for 12 hours prior to drug administration.
All experiments were carried out in the morning. Rats were treated with the doses of DETC-Me SO or DETC-Me described above, which were dissolved in polyethylene glycol 200. Eight hours later, the rats were anesthetized with carbon-dioxide and then decapitated. The liver was quickly removed and the low Km aldehyde dehydrogenase determined. Control rats were treated with […] vehicle only, and each control data point also represents an average of four rats.
The liver from drug-treated and control rats was homogenized in 0.25 M sucrose and differential centrifugation was carried out to isolate the mitochondrial fraction. The mitochondria were solubilized with sodium deoxycholate, and mitochondrial low Km and total (high and low) aldehyde dehydrogenase activity determined by the method of S. O. C. Tottmar et al., cited above.

Five compounds from patent US20050037975A1, “Method for treatment of glutamate related disorders” (priority 1997, published 2005) can be followed below.

Numbering of substitutions follows the chain as printed.

For the compound `CCN(CC)C(=O)SC[C@H](NC(=O)CC[C@H](N)C(=O)O)C(=O)NCC(=O)O` [DETC-GS, S-(N,N-diethylcarbamoyl)glutathione], the inhibition (as a rule, the relative decrease from the control value, in per cent) at 30 µmol/kg against mouse liver low Km ALDH was 30.1 ± 1%. For the same compound, in the data set with ALDH2, the “effect on aldehyde dehydrogenase in vitro” value is given as “no effect”. The “stability of the carbamoylated glutathione” value in data set [1] was “relatively stable”. Moreover, the “irreversible brain glutamate receptor blockage” value in data set [2] is 26.9±4.3%. Also, the “effect on glutamate binding to synaptic membrane preparations” value (shortened to “effect on glutamate binding”) in data set [3] was “reversibly blocked”.

On to `CN[C@H](CC(=O)O)C(=O)O` [NMDA, N-methyl-D-asparate, reference compound], for which the “reversible blockage of glutamate binding” value in data set [3] (0.5 mM, in the presence of glycine (0.1 mM)) is given as 32±2%. For the same compound, the “effect on glutamate binding” value in data set [3] is “does not block glutamate binding”.

Turning to `CCN(CC)C(=S)[S+](C)[O-]` (centres unmarked) [DDTC-Me SO, S-Methyl-N,N-Diethyldithiocarbamate Sulfoxide], the IC50 in data set [4] (2 mg mitochondrial protein, read-out: concentration required for 50% inhibition) was roughly 15 µM.

`CCN(CC)C(=O)SC` [DETC-Me, S-Methyl-N,N-Diethylthiolcarbamate]: in data set [5], the “dose required to inhibit 50% of the low Km ALDH” value is listed as 6.5 mg/kg. The “inhibition of low Km ALDH” value in data set [4] (200 μM) is reported as 8%.

Regarding “oxidized glutathione [GSSG, reference compound]”, the “effect on glutamate binding” value in data set [3] was “reversibly blocked”.
